Test results from patent US20210395239A1 (Hoffmann-La Roche Inc., priority 2018, published 2021).

Each molecule was assayed against T1, human TLR8 (Homo sapiens, UniProt Q9NR97) (assay: HEK293-Blue-hTLR-8 cells assay (SEAP reporter, R848 stimulation)). Conditions: HEK293-Blue-hTLR8 cells, R848, 20 hrs; read-out: HEK/hTLR8 IC50.
T1 construct: host or cells: HEK293 (HEK-Blue hTLR8)
T1 sequence (Q9NR97 27-1041): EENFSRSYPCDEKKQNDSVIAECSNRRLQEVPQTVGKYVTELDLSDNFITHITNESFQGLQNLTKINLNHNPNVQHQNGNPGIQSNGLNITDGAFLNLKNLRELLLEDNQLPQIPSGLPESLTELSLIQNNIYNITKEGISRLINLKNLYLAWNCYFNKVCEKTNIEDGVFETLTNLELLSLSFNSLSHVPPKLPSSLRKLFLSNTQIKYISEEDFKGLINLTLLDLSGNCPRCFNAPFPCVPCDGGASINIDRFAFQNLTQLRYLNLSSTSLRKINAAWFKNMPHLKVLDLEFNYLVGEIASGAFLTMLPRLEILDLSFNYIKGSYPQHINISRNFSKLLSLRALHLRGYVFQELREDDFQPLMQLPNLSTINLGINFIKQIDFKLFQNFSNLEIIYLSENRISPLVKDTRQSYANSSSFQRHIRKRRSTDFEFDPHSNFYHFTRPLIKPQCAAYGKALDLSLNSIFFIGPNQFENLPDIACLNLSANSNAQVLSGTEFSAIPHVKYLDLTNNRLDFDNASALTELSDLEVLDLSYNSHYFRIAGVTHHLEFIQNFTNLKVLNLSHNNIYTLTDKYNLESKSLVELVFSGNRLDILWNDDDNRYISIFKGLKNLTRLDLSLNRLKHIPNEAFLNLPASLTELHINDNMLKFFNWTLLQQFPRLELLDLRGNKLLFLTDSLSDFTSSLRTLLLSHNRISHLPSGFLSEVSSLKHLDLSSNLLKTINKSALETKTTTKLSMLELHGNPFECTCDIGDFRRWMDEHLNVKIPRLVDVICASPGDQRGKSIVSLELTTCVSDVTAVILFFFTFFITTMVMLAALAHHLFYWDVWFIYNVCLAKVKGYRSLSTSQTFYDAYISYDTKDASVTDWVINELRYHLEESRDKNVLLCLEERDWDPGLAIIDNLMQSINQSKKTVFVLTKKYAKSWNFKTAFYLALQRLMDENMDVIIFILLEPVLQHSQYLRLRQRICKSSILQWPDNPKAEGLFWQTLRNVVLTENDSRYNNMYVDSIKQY
Type: cell-based
Text: HEK293-Blue-hTLR-8 Cells Assay:
A stable HEK293-Blue-hTLR-8 cell line was purchased from InvivoGen (Cat. #: hkb-ht1r8, San Diego, Calif., USA). These cells were originally designed for studying the stimulation of human TLR8 by monitoring the activation of NF-κB. A SEAP (secreted embryonic alkaline phosphatase) reporter gene was placed under the control of the IFN-β minimal promoter fused to five NF-κB and AP-1-binding sites. The SEAP was induced by activating NF-κB and AP-1 via stimulating HEK-Blue hTLR8 cells with TLR8 ligands. Therefore the reporter expression was declined by TLR8 antagonist under the stimulation of a ligand, such as R848, for incubation of 20 hrs. The cell culture supernatant SEAP reporter activity was determined using QUANTI-Blue™ kit (Cat. #: rep-qb1, Invivogen, San Diego, Ca, USA) at a wavelength of 640 nm, a detection medium that turns purple or blue in the presence of alkaline phosphatase.
HEK293-Blue-hTLR8 cells were incubated at a density of 250,000˜450,000 cells/mL in a volume of 170 μL in a 96-well plate in Dulbecco's Modified Eagle's medium (DMEM) containing 4.5 g/L glucose, 50 U/mL penicillin, […], […], 2 mM L-glutamine, 10% (v/v) heat-inactivated fetal bovine serum with addition of 20 μL test compound in a serial dilution in the presence of final DMSO at 1% and 10 μL of 60 uM R848 in above DMEM, perform incubation under 37° C. in a CO2 incubator for 20 hrs. Then 20 μL of the supernatant from each well was incubated with 180 μL Quanti-blue substrate solution at 37° C. for 2 hrs and the absorbance was read at 620˜655 nm using a spectrophotometer. The signaling pathway that TLR8 activation leads to downstream NF-κB activation has been widely accepted, and therefore similar reporter assay was modified for evaluating TLR8 antagonist.

SMILES | IC50 [nM]
COC1CN(c2nccc(N3CCN(C[C@H]4CN(c5ccc(C#N)c6ncccc56)C[C@@H](C)O4)CC3)n2)CC1N (stereo in doubt) [Example 93, 5-[(2S,6R)-2-[[4-[2-[(3R,4S)-3-amino-4-methoxy-pyrrolidin-1-yl]pyrimidin-4-yl]piperazin-1-yl]methyl]-6-methyl-morpholin-4-yl]quinoline-8-carbonitrile] | 3
C[C@@H]1CN(c2ccc(C#N)c3ncccc23)C[C@H](CN2CCN(c3ccc(CN)cc3)CC2)O1 [Example 5, 5-[(2S,6R)-2-[[4-[4-(aminomethyl)phenyl]piperazin-1-yl]methyl]-6-methyl-morpholin-4-yl]quinoline-8-carbonitrile] | 33
C[C@@H]1CN(c2ccc(C#N)c3ncccc23)C[C@H](CN2CCN(c3cnc(N4CCNCC4)cn3)CC2)O1 [Example 6, 5-[(2R,6S)-2-methyl-6-[[4-(5-piperazin-1-ylpyrazin-2-yl)piperazin-1-yl]methyl]morpholin-4-yl]quinoline-8-carbonitrile] | 7
COc1cc(N2CCN(C[C@H]3CN(c4ccc(C#N)c5ncccc45)C[C@@H](C)O3)CC2)nc(N2CCNCC2)n1 [Example 91, 5-[(2S,6R)-2-[[4-(6-methoxy-2-piperazin-1-yl-pyrimidin-4-yl)piperazin-1-yl]methyl]-6-methyl-morpholin-4-yl]quinoline-8-carbonitrile] | 8
CO[C@@H]1CN(c2nccc(N3CCN(C[C@H]4CN(c5ccc(C#N)c6ncccc56)C[C@@H](C)O4)CC3)n2)C[C@@H]1N [Example 92, 5-[(2S,6R)-2-[[4-[2-[(3S,4R)-3-amino-4-methoxy-pyrrolidin-1-yl]pyrimidin-4-yl]piperazin-1-yl]methyl]-6-methyl-morpholin-4-yl]quinoline-8-carbonitrile] | 2
C[C@@H]1CN(c2ccc(C#N)c3ncccc23)C[C@H](CN2CCN(c3ncc(F)c(N4CCNCC4)n3)CC2)O1 [Example 94, 5-[(2S,6R)-2-[[4-(5-fluoro-4-piperazin-1-yl-pyrimidin-2-yl)piperazin-1-yl]methyl]-6-methyl-morpholin-4-yl]quinoline-8-carbonitrile] | 6
C[C@@H]1CN(c2ccc(C#N)c3ncccc23)C[C@H](CN2CCN(c3ccnc(N4C[C@@H](F)[C@@H](N)C4)n3)CC2)O1 [Example 95, 5-[(2S,6R)-2-[[4-[2-[(3S,4R)-3-amino-4-fluoro-pyrrolidin-1-yl]pyrimidin-4-yl]piperazin-1-yl]methyl]-6-methyl-morpholin-4-yl]quinoline-8-carbonitrile] | 3
C[C@@H]1CN(c2ccc(C#N)c3ncccc23)C[C@H](CN2CCN(c3ccnc(N4C[C@@H](N)[C@H](F)C4)n3)CC2)O1 [Example 96, 5-[(2S,6R)-2-[[4-[2-[(3R,4R)-3-amino-4-fluoro-pyrrolidin-1-yl]pyrimidin-4-yl]piperazin-1-yl]methyl]-6-methyl-morpholin-4-yl]quinoline-8-carbonitrile] | 4
CO[C@H]1CN(c2ccnc(N3CCN(C[C@H]4CN(c5ccc(C#N)c6ncccc56)C[C@@H](C)O4)CC3)n2)C[C@@H]1N [Example 97, 5-[(2S,6R)-2-[[4-[4-[(3S,4S)-3-amino-4-methoxy-pyrrolidin-1-yl]pyrimidin-2-yl]piperazin-1-yl]methyl]-6-methyl-morpholin-4-yl]quinoline-8-carbonitrile] | 1
CO[C@@H]1CN(c2nccc(N3CCN(C[C@H]4CN(c5ccc(C#N)c6nccnc56)C[C@@H](C)O4)CC3)n2)C[C@H]1N [Example 98, 8-[(2S,6R)-2-[[4-[2-[(3R,4R)-3-amino-4-methoxy-pyrrolidin-1-yl]pyrimidin-4-yl]piperazin-1-yl]methyl]-6-methyl-morpholin-4-yl]quinoxaline-5-carbonitrile] | 1
CO[C@H]1CN(c2nccc(N3CCN(C[C@H]4CN(c5ccc(C#N)c6nccnc56)C[C@@H](C)O4)CC3)n2)C[C@@H]1N [Example 99, 8-[(2S,6R)-2-[[4-[2-[(3S,4S)-3-amino-4-methoxy-pyrrolidin-1-yl]pyrimidin-4-yl]piperazin-1-yl]methyl]-6-methyl-morpholin-4-yl]quinoxaline-5-carbonitrile] | 1
C[C@@H]1CN(c2ccc(C#N)c3ncccc23)C[C@H](CN2CCN(c3ccnc(N4C[C@@H](N)[C@@H](F)C4)n3)CC2)O1 [Example 101, 5-[(2S,6R)-2-[[4-[2-[(3R,4S)-3-amino-4-fluoro-pyrrolidin-1-yl]pyrimidin-4-yl]piperazin-1-yl]methyl]-6-methyl-morpholin-4-yl]quinoline-8-carbonitrile] | 4
Cc1cnc(N2CCN(C[C@H]3CN(c4ccc(C#N)c5ncccc45)C[C@@H](C)O3)CC2)nc1N1CCNCC1 [Example 102, 5-[(2R,6S)-2-methyl-6-[[4-(5-methyl-4-piperazin-1-yl-pyrimidin-2-yl)piperazin-1-yl]methyl]morpholin-4-yl]quinoline-8-carbonitrile] | 2
C[C@@H]1CN(c2ccc(C#N)c3ncccc23)C[C@H](CN2CCN(c3ccnc(N4C[C@H]5NCCO[C@@H]5C4)n3)CC2)O1 [Example 103, 5-[(2S,6R)-2-[[4-[2-[(4aR,7aR)-3,4,4a,5,7,7a-hexahydro-2H-pyrrolo[3,4-b][1,4]oxazin-6-yl]pyrimidin-4-yl]piperazin-1-yl]methyl]-6-methyl-morpholin-4-yl]quinoline-8-carbonitrile] | 1
C[C@@H]1CN(c2ccc(C#N)c3nccnc23)C[C@H](CN2CCN(c3ccnc(N4C[C@@H](N)[C@@H](F)C4)n3)CC2)O1 [Example 108, 8-[(2S,6R)-2-[[4-[2-[(3R,4S)-3-amino-4-fluoro-pyrrolidin-1-yl]pyrimidin-4-yl]piperazin-1-yl]methyl]-6-methyl-morpholin-4-yl]quinoxaline-5-carbonitrile] | 1
COC1CCN(c2nccc(N3CCN(C[C@H]4CN(c5ccc(C#N)c6ncccc56)C[C@@H](C)O4)CC3)n2)CC1N (stereo partly drawn) [Example 109, 5-[(2S,6R)-2-[[4-[2-(3-amino-4-methoxy-1-piperidyl)pyrimidin-4-yl]piperazin-1-yl]methyl]-6-methyl-morpholin-4-yl]quinoline-8-carbonitrile] | 2
C[C@@H]1CN(c2ccc(C#N)c3nccnc23)C[C@H](CN2CCN(c3ccnc(N4CC[C@H](N)[C@H](F)C4)n3)CC2)O1 [Example 111, 8-[(2S,6R)-2-[[4-[2-[(3R,4S)-4-amino-3-fluoro-1-piperidyl]pyrimidin-4-yl]piperazin-1-yl]methyl]-6-methyl-morpholin-4-yl]quinoxaline-5-carbonitrile] | 1
C[C@@H]1CN(c2ccc(C#N)c3nccnc23)C[C@H](CN2CCN(c3ccnc(N4CC[C@@H](N)[C@H](F)C4)n3)CC2)O1 [Example 113, 8-[(2S,6R)-2-[[4-[2-[(3R,4R)-4-amino-3-fluoro-1-piperidyl]pyrimidin-4-yl]piperazin-1-yl]methyl]-6-methyl-morpholin-4-yl]quinoxaline-5-carbonitrile] | 1
Cc1cc(N2C[C@@H](N)[C@@H](F)C2)nc(N2CCN(C[C@H]3CN(c4ccc(C#N)c5nccnc45)C[C@@H](C)O3)CC2)n1 [Example 115, 8-[(2S,6R)-2-[[4-[4-[(3R,4S)-3-amino-4-fluoro-pyrrolidin-1-yl]-6-methyl-pyrimidin-2-yl]piperazin-1-yl]methyl]-6-methyl-morpholin-4-yl]quinoxaline-5-carbonitrile] | 1
